Test results as given in patent US20250368629A1, “FLAVONOID COMPOUNDS AND METHODS AND MATERIALS FOR USING FLAVONOID COMPOUNDS TO TREAT FIBROTIC CONDITIONS” (Mayo Foundation for Medical Education and Research, priority 2022, published 2025).

How the values were obtained:
[1] = system: mouse model of NASH; experiment: Mouse model of NASH (CD-HFD); type: in vivo; conditions: 10 mg/kg daily i.p. for 2 weeks
Protocol: FIGS. 20A-20D show the efficacy of F-4N in a mouse model of NASH. FIG. 20A) Study design and weight changes of mice treated with 10 mg/kg F-4N daily i.p. for 2 weeks. FIG. 20B). Representative H&E and Sirius Red liver histology. FIG. 20C) Objective automated quantification of Sirius Red staining. FIG. 20D) Liver weight and colon weight changes. N=5 chow diet, N=10 holine deficient-high fat diet (CD-HFD) vehicle, N=10 CD-HFD+F-4N.
Mice in a mouse model of NASH were treated with 10 mg/kg F-4N daily i.p. for 2 weeks (FIG. 20A). Livers from treated mice were analyzed by H&E and Sirius Red staining (FIG. 20B). Sirius Red staining was quantified (FIG. 20C). Liver weight and colon weight changes were also assessed (FIG. 20D).

[2] = in vitro; type: in vitro ADME; conditions: rat
Protocol: Plasma protein binding assays were also performed (Table 2). Compounds were incubated with rat plasma for 4 hours. The percent of F-4N recovered was analyzed by LC-MS. Warfarin was used as a control for a compound with high plasma protein binding. Analysis performed by Cyprotex (Framingham, MA).

[3] = Microsomal stability, mouse liver derived microsomes; type: in vitro ADME
Protocol: (§1) The microsomal stability of F-4N was also assessed (FIG. 28). Compounds were incubated with human or mouse liver derived microsomes. The percent of F-4N recovered was analyzed by LC-MS. Verapamil was used as a control for a rapidly degraded compound. Analysis was performed by Cyprotex (Framingham, MA).

[4] = system: Mdr2-/- mice; experiment: Mdr2-/- mouse model of PSC with established liver fibrosis, oral treatment; type: in vivo; conditions: 4 weeks
Source text: 20 Mdr2^−/− mice (10 males, 10 females) approximately 7 months old with established liver fibrosis were assigned to receive either F-4N or vehicle ([…]) for 4 weeks. At the end of treatment, mice were sacrificed, and livers were collected to assess liver inflammation and fibrosis.

[5] = target: T1, STK17A (Homo sapiens, UniProt Q9UEE5); experiment: Kinase dose response curve on STK17A; type: biochemical; conditions: FIG. 4A, read-out: half maximal inhibitory concentration (IC50) on STK17A
T1 construct: purchased Reaction Biology
T1 sequence (Q9UEE5 1-414): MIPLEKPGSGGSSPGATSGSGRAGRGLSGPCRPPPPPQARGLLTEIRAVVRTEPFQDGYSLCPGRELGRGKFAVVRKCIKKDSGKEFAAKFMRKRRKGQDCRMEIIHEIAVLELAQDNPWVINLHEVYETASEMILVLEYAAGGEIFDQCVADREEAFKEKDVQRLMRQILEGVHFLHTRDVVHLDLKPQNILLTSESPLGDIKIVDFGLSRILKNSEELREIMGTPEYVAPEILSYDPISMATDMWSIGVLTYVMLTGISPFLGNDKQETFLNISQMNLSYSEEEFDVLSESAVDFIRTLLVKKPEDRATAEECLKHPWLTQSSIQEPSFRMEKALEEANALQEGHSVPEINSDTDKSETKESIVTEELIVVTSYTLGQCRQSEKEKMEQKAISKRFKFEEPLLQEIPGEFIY
Protocol: FIGS. 4A-4B show mechanism of action of F-4N. […] Dose response curves on STK17A and STK17B show half maximal inhibitory concentration (IC50) values of ˜200 nM. […] FIG. 4A. F-4N was sent to Reaction Biology to be tested against their entire wild-type kinase panel. 1 μM F-4N was tested in an ATP competition assay against 420+ kinases. Z-scores were calculated to identify true hits over noise.

[6] = Stability in human plasma; type: in vitro ADME
Protocol: The stability of F-4N in plasma was assessed (FIG. 27). Compounds were incubated with human or mouse plasma. The percent of F-4N recovered was analyzed by LC-MS. Warfarin was used as a control for stable compound, and propantheline was used as a control for an unstable compound. Analysis was performed by Cyprotex (Framingham, MA).

[7] = Levels of unbound compound in plasma and liver of mice (LC-MS); type: in vivo, mouse; conditions: 2 hours and 8 hours after the final dose, oral gavage 7 days
Protocol: Levels of F-4N in the plasma and liver of mice following F-4N exposure were examined (FIG. 26). Plasma and liver tissue was collected 2 hours and 8 hours after the final dose from the mice subjected to the protocol described in FIG. 24A. Levels of unbound (free) F-4N were analyzed by Cyprotex (Framingham, MA) using LC-MS.

[8] = system: 10-18-month-old C57/B6 mice; experiment: Non-resolving model of lung fibrosis (bleomycin, aged mice); type: in vivo, mouse
Protocol: FIG. 3. Lung fibrosis was induced in 10-18-month-old C57/B6 mice (average ˜15-months) using intratracheal bleomycin (1.1 units/kg) on day 0 of the study. On day 14 one group was administered F-4N (10 mg/kg daily i.p.) for 14 days prior to harvesting the lung for outcomes and senescence clearance and fibrosis. Lung architecture and fibrosis were observed by trichome histological staining and hydroxyproline content. Hydroxyproline content was measured using a hydroxyproline assay kit (Biovision) according to the manufacturer's instructions with slight modification. The lung tissues were weighed, homogenized in sterile water (10 mg of tissue per 100 μL H2O) and hydrolyzed in 12 M HCl in a pressure-tight, Teflon capped vial at 120° C. for 3 hours followed by filtration through a 45 μm Spin-X Centrifuge Tube filter (Corning). Ten μL of the hydrolyzed samples was dried in a Speed-Vac for 2 hours, followed by incubation with 100 μL of Chloramine T reagent for 5 minutes at room temperature and 100 μL of 4-(Dimethylamino)benzaldehyde (DMAB) for 90 minutes at 60° C. The absorbance of oxidized hydroxyproline was determined at 560 nm. Hydroxyproline concentrations were calculated from a standard curve generated using known concentrations of trans-4-hydroxyl-L-proline. The total amount of protein isolated from the weighed tissues was determined by using a protein assay kit (Bio-Rad, absorbance at 595 nm). The amount of collagen was expressed in μg/mg total protein. qPCR: RNA isolation using RNeasy Plus Mini Kit (Qiagen) according to the manufacturer's instructions. Isolated RNA (250 ng) was then used to synthesize cDNA using SuperScript VILO (Invitrogen). Quantitative PCR was performed using FastStart Essential DNA Green Master (Roche) and analyzed using a LightCycler 96 (Roche). Data are expressed as a fold change by ΔΔCt relative to glyceraldehyde-3-phosphate dehydrogenase (GAPDH).

[9] = Microsomal stability, human liver derived microsomes; type: in vitro ADME
Protocol: as §1

[10] = 10 mg/kg daily i.p. for 14 days
[11] = 10 mg/kg daily i.p. for 14 days, qPCR

SMILES: O=c1c(O)c(-c2ccc(OCc3ccncc3)cc2)oc2ccccc12 [F—4N]
- efficacy in NASH model (histology, Sirius Red, liver weight, liver function, triglyceride, hydroxyproline) [1]: effective to treat NASH
- liver expression of profibrotic genes, inflammatory genes, and Stk17b (qPCR) [1]: effectively reduced expression
- recovery at 4 h, 5 μM [2]: 100%
- Plasma bound ([2]; 4 h, 5 μM): 99%
- plasma protein binding (in words) ([2]; plasma): high
- Plasma unbound ([2]; plasma, 4 h, 5 μM): 0.94%
- microsomal stability: half-life and clearance rate [3]: in line with many clinically approved orally administered drugs
- expression of fibrogenic genes in the liver ([4]; oral delivery): reduced expression
- liver fibrosis, especially parenchymal (bridging) fibrosis ([4]; oral delivery): Improvement of liver fibrosis
- tissue markers of liver inflammation and senescence ([4]; oral delivery): Significant reduction
- liver mass ([4]; oral treatment): reduced
- IC50 [5]: ~200 nM
- stability in plasma (percent recovered, LC-MS) [6]: stable
- levels of unbound (free) compound in plasma and liver [7]: higher in liver than plasma
- fibrosis and lung architecture by trichrome histological staining [8, 10]: less fibrosis and improved lung architecture
- lung hydroxyproline content [8, 10]: reduced
- whole lung expression of Collagen I [8, 11]: reduced expression
- whole lung expression of senescence markers (Cdkn2a, Cdkn1a, Ccl2) [8, 11]: reduced expression
- survival following bleomycin-induced fibrosis ([8]; 10 mg/kg daily i.p. from day 14): improved survival
- microsomal stability: half-life and clearance rate [9]: in line with many clinically approved orally administered drugs
